Laboratory results as given in ChEMBL document CHEMBL1133819, “Structure-based design of caspase-1 inhibitor containing a diphenyl ether sulfonamide” (Bioorg Med Chem Lett, 2001).
pIC50, pKi: −log10 of the molar value.

Tests used:
Caspase-1 [1] = target: T1, Caspase-1 (Homo sapiens, UniProt P29466); experiment: Inhibitory concentration against caspase-1 was determined
T1 sequence (P29466 whole entry): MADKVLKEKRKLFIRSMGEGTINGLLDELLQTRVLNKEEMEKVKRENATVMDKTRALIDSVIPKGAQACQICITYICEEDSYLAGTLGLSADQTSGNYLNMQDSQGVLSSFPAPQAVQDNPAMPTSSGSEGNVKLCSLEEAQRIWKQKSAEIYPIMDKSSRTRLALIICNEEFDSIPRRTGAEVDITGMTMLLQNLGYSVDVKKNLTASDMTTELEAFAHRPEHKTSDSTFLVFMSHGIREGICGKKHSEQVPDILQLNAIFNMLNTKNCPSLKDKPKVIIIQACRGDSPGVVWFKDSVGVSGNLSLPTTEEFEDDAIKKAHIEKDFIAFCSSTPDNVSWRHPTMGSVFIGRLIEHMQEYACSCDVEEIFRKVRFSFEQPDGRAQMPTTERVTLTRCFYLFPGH

Caspase-1 [2] = target: T1, Caspase-1; experiment: Binding affinity towards caspase-1 was determined

Compound: O=C[C@@H](NS(=O)(=O)c1ccccc1Oc1ccccc1)C(=O)O
- pIC50 (Caspase-1 [1]): 4.62
- pKi (Caspase-1 [2]): 4.62

Compound: O=C[C@@H](NS(=O)(=O)c1ccccc1Oc1ccc(-c2ccccc2)cc1)C(=O)O
- pIC50 (Caspase-1 [1]): 5.36
- pKi (Caspase-1 [2]): 6.54

Compound: Cc1cccc(Oc2ccccc2S(=O)(=O)N[C@H](C=O)C(=O)O)c1
- pIC50 (Caspase-1 [1]): 4.96
- pKi (Caspase-1 [2]): 6.37

Compound: Cc1cccc(Oc2ccccc2S(=O)(=O)N[C@H](C=O)C(=O)O)c1C
- pIC50 (Caspase-1 [1]): 4.89
- pKi (Caspase-1 [2]): 6.00

Compound: CCC(CC)c1ccc(Oc2ccccc2S(=O)(=O)N[C@H](C=O)C(=O)O)cc1
- pIC50 (Caspase-1 [1]): 5.46
- pKi (Caspase-1 [2]): 6.36

Compound: Cc1ccc(Oc2ccccc2S(=O)(=O)N[C@H](C=O)C(=O)O)cc1
- pIC50 (Caspase-1 [1]): 5.05
- pKi (Caspase-1 [2]): 5.96

Compound: CC(C)c1ccc(Oc2ccccc2S(=O)(=O)N[C@H](C=O)C(=O)O)cc1
- pIC50 (Caspase-1 [1]): 5.28
- pKi (Caspase-1 [2]): 6.21

Compound: Cc1ccccc1Oc1ccccc1S(=O)(=O)N[C@H](C=O)C(=O)O
- pIC50 (Caspase-1 [1]): 4.85
- pKi (Caspase-1 [2]): 5.52

Compound: CCC(C)c1ccc(Oc2ccccc2S(=O)(=O)N[C@H](C=O)C(=O)O)cc1C (some centres undefined)
- pIC50 (Caspase-1 [1]): 6.00
- pKi (Caspase-1 [2]): 7.00

Compound: CC(C)c1cccc(Oc2ccccc2S(=O)(=O)N[C@H](C=O)C(=O)O)c1
- pIC50 (Caspase-1 [1]): 5.43
- pKi (Caspase-1 [2]): 6.39

Compound: O=C[C@@H](NS(=O)(=O)c1ccccc1Oc1ccc(C2CCCCC2)cc1)C(=O)O
- pIC50 (Caspase-1 [1]): 5.37
- pKi (Caspase-1 [2]): 6.05

Compound: Cc1cc(Oc2ccccc2S(=O)(=O)N[C@H](C=O)C(=O)O)ccc1C(C)C
- pIC50 (Caspase-1 [1]): 6.00
- pKi (Caspase-1 [2]): 6.96

Compound: CCC(C)c1ccc(Oc2ccccc2S(=O)(=O)N[C@H](C=O)C(=O)O)cc1 (some centres undefined)
- pIC50 (Caspase-1 [1]): 5.66
- pKi (Caspase-1 [2]): 6.31

Compound: O=C[C@@H](NS(=O)(=O)c1ccccc1Oc1ccc(C2CCCC2)cc1)C(=O)O
- pIC50 (Caspase-1 [1]): 5.32
- pKi (Caspase-1 [2]): 6.06

Compound: Cc1cc(Oc2ccccc2S(=O)(=O)N[C@H](C=O)C(=O)O)cc(C)c1C
- pIC50 (Caspase-1 [1]): 5.11
- pKi (Caspase-1 [2]): 6.35

Compound: O=C[C@@H](NS(=O)(=O)c1ccccc1-c1ccccc1)C(=O)O
- pIC50 (Caspase-1 [1]): 4.70
- pKi (Caspase-1 [2]): 5.80

Compound: O=C[C@@H](NS(=O)(=O)c1ccccc1Oc1ccc(-c2ccc(C(=O)O)cc2)cc1)C(=O)O
- pIC50 (Caspase-1 [1]): 4.24
- pKi (Caspase-1 [2]): 5.38
